What follows are molecules tested on S. cerevisiae SKN7-toxicity growth rescue, plate reader (assay: SKN7 mediated toxicity in Saccharomyces cerevisiae, growth rescue counterscreen, dose confirmation (AID 624258);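 also: growth read after three days of incubation at 30 °C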).

SMILES | AC40 [µM]
COc1ccc2cnn(CCOc3cc(C)ccc3C(C)C)c(=O)c2c1OC | 4.15
CO/N=C/c1ccc(Oc2ccc([N+](=O)[O-])cc2[N+](=O)[O-])c(OC)c1 | 18.5
Cc1ccc(C)c(NS(=O)(=O)c2cc(C(=O)N3CCc4ccccc4C3)ccc2Cl)c1 | 6.58
CCOc1ccc(/C=C2/SC(=O)NC2=S)cc1 | 1.24
O=C1c2ccccc2NC(c2ccc(-c3ccc(F)cc3)o2)N1O (centres undefined) | 14
COc1ccc2c(c1)[C@H]1[C@H](CO2)[C@H](c2ccccc2)[C@]2(C)C(=O)Nc3ccc(Cl)cc3C(=O)N12 | 17.2
O=C(N/N=C/c1sc(N2CCOCC2)nc1-c1ccccc1)c1ccccc1O | 3.04
CC(C)(C)c1ccc(Cn2ccc(-c3ccc4c(c3)OCO4)n2)cc1 | 8.82
CC1Cc2ccccc2N1c1ncnc(N)c1[N+](=O)[O-] (centres undefined) | 7.27
CN(C)S(=O)(=O)c1cccc(NC(=S)NNC(=O)c2cc3ccccc3cc2O)c1 | 1.27
Cc1onc(-c2c(Cl)cccc2Cl)c1C(=O)N/N=C(\N)COc1ccc(Cl)cc1 | 2.55
CCOC(=O)C1=C(Cc2ccc(OC)cc2)C(=O)c2ccccc2C1=O | 2.67
Oc1ccc(Cl)cc1CNc1cccc2cccnc12 | 0.156
O=c1c(O)cccc2cc(O)c(O)c(O)c12 | 2.27
c1ccc2c(-c3c[nH]c4ccccc34)c3ccccc3nc2c1 | 5.73
N#CC1=C(N)NC(=S)C(C(N)=O)C1c1ccc(Cl)cc1Cl (centres undefined) | 10.5
O=C(CSc1ccc(-c2ccccn2)nn1)N1CCCc2ccccc21 | 4.75
O=[N+]([O-])c1cccc(-c2cc(-c3cc(Br)ccc3O)[nH]n2)c1 | 8.39
O=C(CSc1ccc(-c2ccccn2)nn1)NC1CCCCC1 | 16.1

From PubChem BioAssay AID624258 (Broad Institute, 2012)
